{"source": "patent US20120058158A1", "about": "“Sublingual Pharmaceutical Composition Comprising a Neutral Oil” (priority 2009, published 2012)", "key": {"[1]": {"test": "Solubility enhancement by heat or essential oil (menthol) in Miglyol", "format": "physicochemical", "settings": "heat or menthol added (separate solutions)"}, "[2]": {"test": "Solubility tests in Miglyol 810", "settings": "Miglyol 810, magnetic stirring; amount and volume per drug as in the block"}, "physchem": {"test": "physchem", "settings": "oil or lipid"}, "[3]": {"test": "Repeat-dose artemether sublingual spray study (avoidance of autoinduction)", "format": "in vivo, human", "settings": "30 mg artemether sublingual spray single on days 1 and 5, twice daily on days 2, 3 and 4", "experimental": "A similar avoidance of autoinduction is expected with delivery by the transmucosal buccal or nasal route. In confidential trials, volunteers followed the following treatment: A single administration of 30 mg artemether sublingual spray 6 mg/actuation on days 1 and 5 following an overnight fast, and twice daily administrations of 30 mg artemether sublingual spray 3 mg/actuation on days 2, 3, and 4 following a morning or evening meal. Blood samples were collected for pharmacokinetic analysis at the following time points: Day 1: Predose, 0.25, 0.5, 0.75, 1, 1.5, 2, 2.5, 3, 4, 6, 8, and 12 h after dosing. Days 2, 3, and 4: pre morning dose and 0.5, 1, 2 and 4 h after morning dose and pre evening dose and 1 hour after evening dose. Day 5: Predose, 0.25, 0.5, 0.75, 1, 1.5, 2, 2.5, 3, 4, 6, 8, 12 h and 24 h after dosing."}, "[4]": {"test": "Single-dose pharmacokinetic study, artemether sublingual spray vs oral tablets", "format": "in vivo, human", "settings": "for λz elimination rate constant, Plasma Artemether / Cmax / Tmax / AUC(0-t) / Vd/F / half-life: n = 16, mean ± SD; for Cmax / Tmax / AUC(0-t) / Vd/F / half-life / bioavailability: male, human, plasma; for AUC(0-t): read-out: AUC0-12, Plasma Artemether; for Vd/F: read-out: V/F apparent volume of distribution, Plasma Artemether; for half-life: read-out: t1/2 elimination half-life, Plasma Artemether (converted); for bioavailability: other: sublingual, ± S.D.", "experimental": "Trials were carried out on healthy male adult human volunteers (16 subjects per cohort), and subject to normal ethical approval. Three single-dose regimes according to the present invention were studied, and compared to a regime using oral-dosed tablets, as follows: Spray formulations of artemether were prepared as detailed above, and administered, on a single occasion, to a group of volunteers by the sublingual route. […] Following administration of each dosage regime, blood samples were taken from the subjects, and plasma concentrations of artemether and its immediate metabolite dihydroartemesinin were determined, in order to compare bioavailability by the two routes."}, "[5]": {"settings": "15 mg, T1: single sublingual 15 mg Artemether sublingual spray, 3 mg per actuation"}, "[6]": {"settings": "30 mg, T2: single sublingual 30 mg Artemether sublingual spray, 3 mg per actuation"}, "[7]": {"settings": "30 mg, T3: single sublingual 30 mg Artemether sublingual spray, 6 mg per actuation"}, "[8]": {"settings": "po, 30 mg, T4: single oral 30 mg Artemether Tablets, 10 mg per Tablet"}}, "note": "“Also recorded” adds a separate entry of the source. Where a name gives a salt, the structure may show the parent alone. Read-outs that look alike come from different tables or passages of the source.", "data": [{"smiles": "O=C1CC[C@@]2(O)[C@H]3Cc4ccc(O)c5c4[C@@]2(CCN3CC2CC2)[C@H]1O5", "note": "[Naltrexone Base]", "values": [{"measurement": "solubility in Miglyol with the addition of heat or menthol", "setting": "[1]", "result": "soluble with the addition of heat or menthol"}, {"measurement": "solubility in Miglyol", "setting": "[2]", "result": "sparingly soluble"}]}, {"smiles": "CCCNC(C)C(=O)Nc1ccccc1C", "note": "(stereo not drawn) [Prilocaine Base]", "values": [{"measurement": "solubility", "setting": "physchem", "result": "~137", "unit": "mg/mL"}]}, {"smiles": "C[C@H]1[C@@H](O)O[C@@H]2O[C@@]3(C)CC[C@H]4[C@H](C)CC[C@@H]1[C@@]24OO3", "note": "[Dihydroartemesinin]", "values": [{"measurement": "pharmacokinetic analysis of plasma dihydroartemesinin, day 1 vs day 5", "setting": "[3]", "result": "effectively identical response"}]}, {"smiles": "C=CCN1CC[C@]23c4c5ccc(O)c4O[C@H]2C(=O)CC[C@@]3(O)[C@H]1C5", "note": "[Naloxone]", "values": [{"measurement": "solubility in Miglyol", "setting": "[2]", "result": "sparingly soluble"}]}, {"smiles": "Oc1ccc2c3c1O[C@H]1[C@@H](O)CC[C@@]4(O)[C@@H](C2)N(CC2CCC2)CC[C@]314", "note": "[Nalbuphine HCl]", "values": [{"measurement": "solubility in Miglyol", "setting": "[2]", "result": "not soluble"}]}, {"smiles": "COc1cccc(C2(O)CCCCC2CN(C)C)c1", "note": "(stereo not drawn) [Tramadol HCl]", "values": [{"measurement": "solubility in Miglyol", "setting": "[2]", "result": "insoluble"}]}, {"smiles": "CCCC1O[C@@H]2C[C@H]3[C@@H]4CCC5=CC(=O)C=C[C@]5(C)[C@H]4[C@@H](O)C[C@]3(C)[C@]2(C(=O)CO)O1", "note": "(stereo partly drawn) [Budesonide]", "values": [{"measurement": "solubility in Miglyol with the addition of heat or menthol", "setting": "[1]", "result": "appeared to dissolve; also recorded: soluble with the addition of heat or menthol"}]}, {"smiles": "CO[C@H]1O[C@@H]2O[C@@]3(C)CC[C@H]4[C@H](C)CC[C@@H]([C@H]1C)[C@@]24OO3", "note": "[Artemether]", "values": [{"measurement": "absorption (comparison of AUC0-12), sublingual spray vs oral tablet dosing", "setting": "[4]; 12 hours following the doses, preliminary results", "result": "significant and surprisingly higher absorption"}, {"measurement": "λz elimination rate constant, Plasma Artemether", "setting": "[4]; T1: single sublingual 15 mg Artemether sublingual spray, 3 mg per actuation", "result": "1.11 ± 0.40", "unit": "h⁻¹"}, {"measurement": "λz elimination rate constant, Plasma Artemether", "setting": "[4]; T2: single sublingual 30 mg Artemether sublingual spray, 3 mg per actuation", "result": "0.56 ± 0.20", "unit": "h⁻¹"}, {"measurement": "λz elimination rate constant, Plasma Artemether", "setting": "[4]; T3: single sublingual 30 mg Artemether sublingual spray, 6 mg per actuation", "result": "0.59 ± 0.25", "unit": "h⁻¹"}, {"measurement": "λz elimination rate constant, Plasma Artemether", "setting": "[4]; T4: single oral 30 mg Artemether Tablets, 10 mg per Tablet", "result": "0.31 ± 0.15", "unit": "h⁻¹"}, {"measurement": "Cmax", "setting": "[4]; [5]", "result": "16.1 ± 8.69", "unit": "ng/mL"}, {"measurement": "Tmax", "setting": "[4]; [5]", "result": "1.7 ± 0.68", "unit": "h"}, {"measurement": "AUC(0-t)", "setting": "[4]; [5]", "result": "25.9 ± 13.9", "unit": "ng·h/mL"}, {"measurement": "Vd/F", "setting": "[4]; [5]", "result": "680 ± 330", "unit": "L"}, {"measurement": "half-life", "setting": "[4]; [5]", "result": "0.72 ± 0.3", "unit": "h"}, {"measurement": "Cmax", "setting": "[4]; [6]", "result": "32.1 ± 16.4", "unit": "ng/mL"}, {"measurement": "Tmax", "setting": "[4]; [6]", "result": "1.73 ± 0.82", "unit": "h"}, {"measurement": "AUC(0-t)", "setting": "[4]; [6]", "result": "76.6 ± 43.1", "unit": "ng·h/mL"}, {"measurement": "Vd/F", "setting": "[4]; [6]", "result": "1000 ± 550", "unit": "L"}, {"measurement": "half-life", "setting": "[4]; [6]", "result": "1.39 ± 0.49", "unit": "h"}, {"measurement": "Cmax", "setting": "[4]; [7]", "result": "35.2 ± 23.9", "unit": "ng/mL"}, {"measurement": "Tmax", "setting": "[4]; [7]", "result": "1.67 ± 0.77", "unit": "h"}, {"measurement": "AUC(0-t)", "setting": "[4]; [7]", "result": "71.1 ± 41.1", "unit": "ng·h/mL"}, {"measurement": "Vd/F", "setting": "[4]; [7]", "result": "1010 ± 490", "unit": "L"}, {"measurement": "half-life", "setting": "[4]; [7]", "result": "1.4 ± 0.59", "unit": "h"}, {"measurement": "bioavailability", "setting": "[4]; 15 mg, T1 (15 mg sublingual spray, 3 mg/actuation) vs T4 (30 mg oral tablets), read-out: F-value FT1-T4 (relative bioavailability of artemether)", "result": "167 ± 60", "unit": "%"}, {"measurement": "bioavailability", "setting": "[4]; 30 mg, T2 (30 mg sublingual spray, 3 mg/actuation) vs T4 (30 mg oral tablets), read-out: F-value FT2-T4 (relative bioavailability of artemether)", "result": "224 ± 92", "unit": "%"}, {"measurement": "bioavailability", "setting": "[4]; 30 mg, T3 (30 mg sublingual spray, 6 mg/actuation) vs T4 (30 mg oral tablets), read-out: F-value FT3-T4 (relative bioavailability of artemether)", "result": "209 ± 69", "unit": "%"}, {"measurement": "Cmax", "setting": "[4]; [8]", "result": "10.1 ± 7.19", "unit": "ng/mL"}, {"measurement": "Tmax", "setting": "[4]; [8]", "result": "1.02 ± 0.86", "unit": "h"}, {"measurement": "AUC(0-t)", "setting": "[4]; [8]", "result": "34.6 ± 21", "unit": "ng·h/mL"}, {"measurement": "Vd/F", "setting": "[4]; [8]", "result": "3900 ± 2900", "unit": "L"}, {"measurement": "half-life", "setting": "[4]; [8]", "result": "3.44 ± 4.26", "unit": "h"}]}]}
